Test results as given in patent US10441588B2, “Methods and compositions for treating bacterial infection” (Curators of the University of Missouri, priority 2012, dated 2019).
Structures can show the parent of a compound that is named as a salt. Where two headings read alike, the source gives them in different places.

How the values were obtained:
S. epidermis biofilm = S. epidermis biofilm inhibition, optical density, test/control; conditions: Staphylococcus epidermidis, growth of biofilm test/control by optical density; for activity at 5 µM: read-out: S. epidermis Biofilm inhibition 5 μM vs. (−) Control, 5 μM; for activity at 50 µM: read-out: S. epidermis Biofilm inhibition 50 μM vs. (−) Control, 50 μM
S. aureus biofilm = S. aureus biofilm inhibition, optical density, test/control; type: cell-based, Staphylococcus aureus; conditions: Staphylococcus aureus, growth of biofilm test/control by optical density
S. aureus = S. aureus growth inhibition, optical density, test/control; type: cell-based, Staphylococcus aureus; conditions: Staphylococcus aureus, growth of bacteria test/control by optical density
[1] = 5 μM, read-out: S. aureus Biofilm Inhibition 5 μM vs. (−) Control
[2] = read-out: S. aureus Biofilm Inhibition 5 μM vs. (−) Control, 5 μM

SMILES	activity at 100 µM (S. aureus biofilm) [%]	activity at 100 µM (S. aureus) [%]	further results
C=CCn1c(SCCOC)nc2c(c1=O)C1(CCN(C(=O)OC(C)(C)C)CC1)Cc1cc(OC)ccc1-2 [CCG-206660, tert-butyl 3-allyl-8-methoxy-2-((2-methoxyethyl)thio)-4-oxo-4,6-dihydro-3H-spiro[benzo[h]quinazoline-5,4′-piperidine]-1′-carboxylate]	–	–	activity at 5 µM (S. epidermis biofilm): 71.5%; activity at 50 µM (S. epidermis biofilm): 64.3%; activity at 5 µM (S. aureus biofilm; [1]): 46%; activity at 50 µM (S. aureus biofilm; 50 μM, read-out: S. aureus Biofilm Inhibition 50 μM vs. (−) Control): 60.1%
C=CCn1c(SCC)nc2c(c1=O)C1(CCNCC1)Cc1cc(OC)ccc1-2 [CCG-206664, 3-allyl-2-(ethylthio)-8-methoxy-3H-spiro[benzo[h]quinazoline-5,4′-piperidin]-4(6H)-one hydrochloride]	–	–	activity at 5 µM (S. epidermis biofilm): 87.7%; activity at 5 µM (S. aureus biofilm; [2]): 89%; activity at 50 µM (S. aureus biofilm; read-out: S. aureus Biofilm Inhibition 50 μM vs. (−) Control, 50 μM): 2.8%
C=CCn1c(SCC)nc2c(c1=O)C1(CCN(C(=O)OC(C)(C)C)CC1)Cc1cc(OC)ccc1-2 [CCG-206663, tert-butyl 3-allyl-2-(ethylthio)-8-methoxy-4-oxo-4,6-dihydro-3H-spiro[benzo[h]quinazoline-5,4′-piperidine]-1′-carboxylate]	–	–	activity at 5 µM (S. epidermis biofilm): 73.4%; activity at 50 µM (S. epidermis biofilm): 76.1%; activity at 5 µM (S. aureus biofilm; [1]): 49.9%
COCCSc1nc(OCC2CC2)c2c(n1)-c1ccccc1CC2(C)C [CCG-205445, 4-(Cyclopropylmethoxy)-2-((2-methoxyethyl)thio)-5,5-dimethyl-5,6-dihydrobenzo[h]quin-azoline]	71.1	107	–
C=CCn1c(SCCOC)nc2c(c1=O)C1(CCNCC1)Cc1cc(OC)ccc1-2 [CCG-206661, 3-allyl-8-methoxy-2-((2-methoxyethyl)thio)-3H-spiro[benzo[h]quinazoline-5,4′-piperidin]-4(6H)-one hydrochloride]	–	–	activity at 5 µM (S. epidermis biofilm): 98.7%; activity at 5 µM (S. aureus biofilm; [2]): 86.9%
C=CCn1c(SCc2cccc(OC)c2)nc2c(c1=O)C1(CCCCC1)Cc1ccccc1-2 [CCG-102485]	49.5	114	–
COCCSc1nc2c(c(=O)n1CCOc1ccc(F)cc1)C(C)(C)Cc1ccccc1-2 [CCG-204027, 3-(2-(4-Fluorophenoxy)ethyl)-2-((2-methoxyethyl)thio)-5,5-dimethyl-5,6-dihydrobenzo-[h]quinazolin-4(3H)-one]	74.8	108	–
C=CCn1c(SCCO)nc2c(c1=O)C(C)(C)Cc1ccccc1-2 [CCG-203041]	47.7	89.7	–
COCCSc1nc2c(c(=O)n1Cc1ccc(OC)cc1)C(C)(C)Cc1ccccc1-2 [CCG-204036, 3-(4-Methoxybenzyl)-2-((2-methoxyethyl)thio)-5,5-dimethyl-5,6-dihydrobenzo[h]quin-azolin-4(3H)-one]	76.5	112	–
COCCSc1nc(OCc2ccc(OC)cc2)c2c(n1)-c1ccccc1CC2(C)C [CCG-204037, 4-((4-Methoxybenzyl)oxy)-2-((2-methoxyethyl)thio)-5,5-dimethyl-5,6-dihydrobenzo[h]-quinazoline]	65.7	110	–
COCCSc1nc2c(c(=O)n1CCCC#N)C(C)(C)Cc1ccccc1-2 [CCG-204031, 4-(2-((2-Methoxyethyl)thio)-5,5-dimethyl-4-oxo-5,6-dihydrobenzo[h]quinazolin-3(4H)-yl)butanenitrile]	59.2	98.5	–
C=CCn1c(SCC)nc2c(c1=O)C(C)(C)Cc1c(OC)cccc1-2 [CCG-203629]	35.1	66.7	–
C=CCn1c(SCCN(C)C)nc2c(c1=O)C1(CCCCC1)Cc1ccccc1-2 [CCG-102495]	78.9	93	–
C=CCOc1nc(SCCOC)nc(-c2ccccc2)c1C [CCG-205382, 4-(Allyloxy)-2-((2-methoxyethyl)thio)-5-methyl-6-phenylpyrimidine]	55.2	93.4	–
C=CCn1c([S+]([O-])CC)nc2c(c1=O)C(C)(C)Cc1ccc(OC)cc1-2 (centres unmarked) [CCG-206355]	74.7	96	–
COCCSc1nc2c(c(=O)n1CC1CC1)C(C)(C)Cc1ccccc1-2 [CCG-205444, 3-(Cyclopropylmethyl)-2-((2-methoxyethyl)thio)-5,5-dimethyl-5,6-dihydrobenzo[h]quinazolin-4(3H)-one]	66.2	104	–
C=CCn1c(OCC)nc2c(c1=O)C1(CCCCC1)Cc1ccccc1-2 [CCG-102622]	68.6	77.7	–
C#CCSc1nc2c(c(=O)n1CC=C)C(C)(C)Cc1cc(C(=O)c3ccccc3)ccc1-2 [CCG-204080, 3-allyl-8-benzoyl-5,5-dimethyl-2-(prop-2-yn-1-ylthio)-5,6-dihydrobenzo[h]quinazolin-4(3H)-one]	73.4	110	–
COCCOc1nc(SCCOC)nc(-c2ccccc2)c1C [CCG-205361, 4-(2-Methoxyethoxy)-2-((2-methoxyethyl)thio)-5-methyl-6-phenylpyrimidine]	67.7	89	–

SMILES	activity at 100 µM (S. aureus biofilm) [%]	activity at 100 µM (S. aureus) [%]	further results
C=CCn1c(SCc2ccc(NC(C)=O)cc2)nc2c(c1=O)C1(CCCCC1)Cc1ccccc1-2 [CCG-102491]	75	84.8	–
COCCSc1nc2c(c(=O)n1CCOc1ccc(OC)cc1)C(C)(C)Cc1ccccc1-2 [CCG-204060]	79	91.2	–
C=CCn1c(SCCOC)nc2c(c1=O)C1(CCN(C(C)=O)CC1)Cc1ccccc1-2 [CCG-206230, 1′-Acetyl-3-allyl-2-((2-methoxyethyl)thio)-3H-spiro[benzo[h]quinazoline-5,4′-piperidin]-4(6H)-one]	–	97	activity at 10 µM (S. aureus biofilm): 85.5%
C=CCn1c(OCC)nc2c(c1=O)C(C)(C)Cc1ccccc1-2 [CCG-203803]	76.8	81.9	–
C=CCn1c(SCC)nc2c(c1=O)C(C)(C)Cc1cc(OC(C)C)ccc1-2 [CCG-205480]	–	115	activity at 10 µM (S. aureus biofilm): 52.3%
C=CCn1c(SCC)nc2c(c1=O)C(C)(C)Cc1c(O)cccc1-2 [CCG-203631]	31.1	76.7	–
COCCSc1nc(OCCOc2ccc(F)cc2)c2c(n1)-c1ccccc1CC2(C)C [CCG-204028, 4-(2-(4-Fluorophenoxy)ethoxy)-2-((2-methoxyethyl)thio)-5,5-dimethyl-5,6-dihydrobenzo[h]-quinazoline]	70	113	–
C=CCn1c(SCC)nc2c(c1=O)C(C)(C)Cc1cc(OCC#N)ccc1-2 [CCG-206178]	–	104	activity at 10 µM (S. aureus biofilm): 56.5%
C=CCn1c(SCCOC)nc2c(c1=O)C1(CCN(C(=O)Nc3ccccc3)CC1)Cc1cc(OC)ccc1-2 [CCG-211971, 3-allyl-8-methoxy-2-((2-methoxyethyl)thio)-4-oxo-N-phenyl-4,6-dihydro-3H-spiro[benzo[h]quinazoline-5,4′-piperidine]-1′-carboxamide]	–	–	activity at 5 µM (S. epidermis biofilm): 125%; activity at 50 µM (S. epidermis biofilm): 69%
C=CCn1c(SCC)nc2c(c1=O)C(C)(C)Cc1cc(OCC(C)C)ccc1-2 [CCG-205426, 3-allyl-2-(ethylthio)-8-isobutoxy-5,5-dimethyl-5,6-dihydrobenzo[h]quinazolin-4(3H)-one]	77.8	114	–
C=CCn1c(SCCOC)nc2c(c1=O)C1(CCN(C(=O)c3ccccc3)CC1)Cc1ccccc1-2 [CCG-206231, 3-Allyl-1′-benzoyl-2-((2-methoxyethyl)thio)-3H-spiro[benzo[h]quinazoline-5,4′-piperidin]-4(6H)-one]	53	111	activity at 10 µM (S. aureus biofilm): 52.5%
C=CCn1c(SCc2ccccn2)nc2c(c1=O)C(C)(C)Cc1ccccc1-2 [CCG-203039]	71	95.9	–
COCCSc1nc(OCC2OCCO2)c2c(n1)-c1ccccc1CC2(C)C [CCG-203627]	49.6	80.6	–
COCCSc1nc(OCC(=O)c2ccc(F)c(F)c2)c2c(n1)-c1ccccc1CC2(C)C [CCG-204040, 1-(3,4-Difluorophenyl)-2-((2-((2-methoxyethyl)thio)-5,5-dimethyl-5,6-dihydrobenzo[h]-quinazolin-4-yl)oxy)ethanone]	65.9	119	–
COCCSc1nc2c(c(=O)n1CC1OCCO1)C(C)(C)Cc1ccccc1-2 [CCG-204029, 3-((1,3-Dioxolan-2-yl)methyl)-2-((2-methoxyethyl)thio)-5,5-dimethyl-5,6-dihydrobenzo[h]-quinazolin-4(3H)-one]	63.6	94.3	–
C=CCn1c(SCCOC)nc2c(c1=O)C1(CCN(C=O)CC1)Cc1ccccc1-2 [CCG-206234, 3-Allyl-2-((2-methoxyethyl)thio)-4-oxo-4,6-dihydro-3H-spiro[benzo[h]quinazoline-5,4′-piperidine]-1′-carbaldehyde]	65	99	activity at 10 µM (S. aureus biofilm): 101%
C=CCn1c(SCCOC)nc2c(c1=O)C(C)(C)Cc1cnccc1-2 [CCG-204041, 3-allyl-2-((2-methoxyethyl)thio)-5,5-dimethyl-5,6-dihydropyrido[3,4-h]quinazolin-4(3H)-one]	75.7	90.2	–
CCn1c(SCCOC)nc2c(c1=O)C(C)(C)Cc1ccccc1-2 [CCG-203598]	61	85.5	–
